From ChEMBL document CHEMBL4052660, “The tobacco cembranoid (1S,2E,4S,7E,11E)-2,7,11-cembratriene-4,6-diol as a novel angiogenesis inhibitory lead for the control of breast malignancies” (Bioorg Med Chem, 2017) come the findings set out here.

What is called inhibition is the change of the read-out against control, counted positive when it falls.

SMILES strings stand for the structures. Activity calls are given as the source filed them. The rule behind the calls is not given here.

One data set concerns Mus musculus. As to the kind of experiment: Antiangiogenic activity in matrigel injected Swiss albino mouse assessed as reduction in hemoglobin content in matrigel plug at 2.5 mg/kg, ip every other day for 20 days by matrigel assay. In kind it is functional. Further details: scale not given: the % may be the effect or the level left.
The target of data set [1] is Vascular endothelial growth factor receptor 2 (Homo sapiens) (UniProt P35968). As to the kind of experiment: Inhibition of VEGFR2 phosphorylation in human BT474 cells at 50 uM by Western blot analysis. In kind it is cell-based.
Sequence of Vascular endothelial growth factor receptor 2 (Homo sapiens) (P35968 whole entry): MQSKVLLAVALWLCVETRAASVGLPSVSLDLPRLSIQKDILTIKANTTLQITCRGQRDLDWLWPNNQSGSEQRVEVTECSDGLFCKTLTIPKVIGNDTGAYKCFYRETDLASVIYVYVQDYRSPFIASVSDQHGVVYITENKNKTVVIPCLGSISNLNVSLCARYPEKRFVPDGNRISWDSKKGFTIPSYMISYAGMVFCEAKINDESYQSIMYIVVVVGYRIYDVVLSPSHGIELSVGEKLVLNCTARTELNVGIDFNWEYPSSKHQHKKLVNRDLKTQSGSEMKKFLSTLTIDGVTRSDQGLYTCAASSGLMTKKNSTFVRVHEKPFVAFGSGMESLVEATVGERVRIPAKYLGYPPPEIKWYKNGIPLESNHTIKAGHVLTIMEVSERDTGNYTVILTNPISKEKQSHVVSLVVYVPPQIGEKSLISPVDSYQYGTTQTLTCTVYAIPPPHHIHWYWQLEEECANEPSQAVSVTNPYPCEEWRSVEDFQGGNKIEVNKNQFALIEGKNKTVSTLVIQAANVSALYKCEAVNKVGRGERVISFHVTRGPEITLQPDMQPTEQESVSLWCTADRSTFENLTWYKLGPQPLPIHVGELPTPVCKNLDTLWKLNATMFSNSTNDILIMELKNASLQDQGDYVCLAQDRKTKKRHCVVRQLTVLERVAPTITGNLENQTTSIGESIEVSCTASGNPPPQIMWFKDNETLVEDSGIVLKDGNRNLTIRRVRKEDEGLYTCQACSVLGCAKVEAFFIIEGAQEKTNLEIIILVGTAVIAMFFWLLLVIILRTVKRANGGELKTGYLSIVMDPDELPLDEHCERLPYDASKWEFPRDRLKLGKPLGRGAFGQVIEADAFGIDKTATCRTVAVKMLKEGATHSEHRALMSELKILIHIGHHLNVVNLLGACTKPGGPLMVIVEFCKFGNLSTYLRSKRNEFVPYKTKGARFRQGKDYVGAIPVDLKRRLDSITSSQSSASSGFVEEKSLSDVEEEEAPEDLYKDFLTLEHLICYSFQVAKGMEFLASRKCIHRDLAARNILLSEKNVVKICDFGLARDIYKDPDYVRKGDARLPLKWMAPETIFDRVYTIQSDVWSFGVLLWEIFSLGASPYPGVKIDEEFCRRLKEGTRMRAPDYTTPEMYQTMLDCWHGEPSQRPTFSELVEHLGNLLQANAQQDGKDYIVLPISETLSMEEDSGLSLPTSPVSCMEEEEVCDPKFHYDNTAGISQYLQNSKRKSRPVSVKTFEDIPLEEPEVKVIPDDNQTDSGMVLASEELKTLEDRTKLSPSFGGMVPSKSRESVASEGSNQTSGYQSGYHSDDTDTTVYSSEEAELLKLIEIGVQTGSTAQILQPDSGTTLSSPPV
Data set [2] has the same target. Kind of data set: Inhibition of VEGFR2 in human BT474 cells assessed as reduction in Akt phosphorylation at 20 to 50 uM by Western blot analysis. In kind it is cell-based. For orientation: In western blotting, separated proteins are transferred to a membrane and probed.
Data set [3] has the same target. Kind of data set: Inhibition of VEGFR2 in human MDA-MB-231 cells assessed as downregulation of phosphorylated paxillin levels at 50 uM by Western blot analysis. In kind it is cell-based.
Data set [4] has the same target. Kind of data set: Inhibition of VEGFR2 in human MDA-MB-231 cells assessed as reduction in PI3K phosphorylation at 20 to 50 uM by Western blot analysis. In kind it is cell-based.
The target is the same in data set [5]. Kind of data set: Inhibition of VEGFR2 phosphorylation in human MDA-MB-231 cells at 50 uM by Western blot analysis. In kind it is cell-based.
Data set [6] has the same target. As to the kind of experiment: Inhibition of VEGFR2 in human MDA-MB-231 cells assessed as downregulation of phosphorylated FAK levels at 50 uM by Western blot analysis. In kind it is cell-based.
The subject of data set [7] is Serum. Kind of data set: Drug uptake in athymic nude mouse serum at 40 mg/kg, ip after 2 hrs by ES-MS analysis. In kind it is ADME, organism-based. The settings on record: in vivo.
Data set [8] addresses Vascular endothelial growth factor receptor 2 (Homo sapiens) (UniProt P35968). Kind of data set: Inhibition of VEGFR2 in human MDA-MB-231 cells assessed as reduction in Akt phosphorylation at 20 to 50 uM by Western blot analysis. In kind it is cell-based.
Data set [9] has as its system Serum. Kind of data set: Drug metabolism in athymic nude mouse serum assessed as dihydroxylated metabolite formation at 40 mg/kg, ip after 2 hrs by ES-MS analysis. In kind it is ADME, organism-based. The note with it: in vivo.
Data set [10] concerns the target Vascular endothelial growth factor receptor 2 (Homo sapiens) (UniProt P35968). Kind of data set: Inhibition of VEGFR2 in human MDA-MB-231 cells assessed as downregulation of phosphorylated FAK levels at 20 uM by Western blot analysis. In kind it is cell-based.
Data set [11] shares this target. Kind of data set: Inhibition of VEGFR2 in human MDA-MB-231 cells assessed as downregulation of phosphorylated paxillin levels at 20 uM by Western blot analysis. In kind it is cell-based.
The target is the same in data set [12]. Kind of data set: Inhibition of VEGFR2 in human BT474 cells assessed as downregulation of phosphorylated paxillin levels at 20 uM by Western blot analysis. In kind it is cell-based.
For data set [13] the target is unchanged. Kind of data set: Inhibition of VEGFR2 in human BT474 cells assessed as downregulation of phosphorylated FAK levels at 20 uM by Western blot analysis. In kind it is cell-based.
The target is the same in data set [14]. Kind of data set: Inhibition of VEGFR2 in human BT474 cells assessed as downregulation of phosphorylated paxillin levels at 50 uM by Western blot analysis. In kind it is cell-based.
Data set [15] shares this target. Kind of data set: Inhibition of VEGFR2 phosphorylation in human BT474 cells at 20 uM by Western blot analysis. In kind it is cell-based.
Data set [16] shares this target. Kind of data set: Inhibition of VEGFR2 phosphorylation in human MDA-MB-231 cells at 20 uM by Western blot analysis. In kind it is cell-based.
The test system of data set [17] is Serum. Kind of data set: Drug metabolism in athymic nude mouse serum assessed as monohydroxylated metabolite formation at 40 mg/kg, ip after 2 hrs by ES-MS analysis. The note with it: in vivo. In kind it is ADME, organism-based.
Data set [18] addresses Vascular endothelial growth factor receptor 2 (Homo sapiens) (UniProt P35968). Kind of data set: Inhibition of VEGFR2 in human BT474 cells assessed as downregulation of phosphorylated FAK levels at 50 uM by Western blot analysis. In kind it is cell-based.
The target is the same in data set [19]. As to the kind of experiment: Inhibition of VEGFR2 in human BT474 cells assessed as reduction in PI3K phosphorylation at 20 to 50 uM by Western blot analysis. In kind it is cell-based.

`CCN(CC)CCNC(=O)c1c(C)[nH]c(/C=C2\C(=O)Nc3ccc(F)cc32)c1C` [SUNITINIB]: the Activity with Mus musculus was 80%.

Consider `C/C1=C\[C@H](O)C[C@](C)(O)/C=C/[C@H](C(C)C)CC/C(C)=C/CC1`, for which the inhibition in [1] came to 58.6%; in [3], 96.1%; in data set [5], 65.3%; in data set [6], 41.3%; in data set [10] it was 26%; in [11] it was 58.7%. In addition, the inhibition in [12] turned out to be 70.9%; in [13], 48.9%; in data set [14], 82.1%; in data set [15], 43.1%; in [16], 60.6%; in data set [18], 74.8%. Also, the inhibition entry in data set [2], in [4], in [8] and in data set [19] was “inactive” throughout. For the same compound, the Drug uptake entry with Serum [7] is “Active”. Further, the Drug metabolism result in the data set with Serum [9] and in the data set with Serum [17] was “Metabolite_Detected” each time.
